Assay results reported in patent publication US8563578B2, “Antitumor properties of NO modified protease inhibitors” (Onconox APS, priority 2008, dated 2013).
Read-outs that look alike come from different tables or passages of the source.

Key:
CD1 mice = details: CD1, mouse, in vivo, ip
Experimental: To define the acute toxicity of Sag and Sag NO2, the test compound was administered i.p. to CD1 mice at the single doses of 250, 500, 1000 and 1500 mg/Kg. Control groups were treated i.p. with vehicle (pure DMSO; 100 μl/mouse). Each group consisted of 10 mice. Mortality was evaluated every hour for the first 4 hours and then every 10 hours until 14 days after dosing.

mouse fibroblasts = assay: Cell viability by CV test, primary fibroblasts; assay type: cell-based; details: 24 h, Sag at its IC50 dose
Source text: Rat glioma C6 and human glioblastoma U251 cell lines were a kind gift from Dr. Pedro Tranque (Universidad de Castilla-La Mancha, Albacete, Spain), murine melanoma B 16, and human adenocarcinoma HeLa, were a kind gift from Dr. Sinisa Radulovic (Institute for Oncology and Radiology of Serbia, Belgrade, Serbia) while mouse fibrosarcoma L929 was obtained from the European Collection of Animal Cell Cultures (Salisbury, UK). Human breast HCC1419 and prostate PC-3 cells were purchased from LGC Promochem srl (Venezia, Italy). Primary mouse fibroblasts and rat astrocytes were prepared as described (Mijatovic et al. 2004). […]
Reduction of 3-4,5-dimethylthiazol-2-yl)-2,5-diphenyltetrazolium bromide (MTT) to formazan depends on mitochondrial activity of cultured cells, absorption of crystal violet dye correlates with the number of adherent, live cells, while the release of cytosolic lactate dehydrogenase (LDH) indicates the disruption of membrane integrity caracteristic for necrotic cells. […] Mitohondrial-dependent production of formazan and intensity of absorbed crystal violet by adherent cells were assessed by an automated microplate reader at 570 nm, while the pyruvate-mediated conversion of 2,4-dinitrophenylhydrazine into visible hydrazone precipitate in LDH assay was measured at 492 nm. […]
FIG. 2. […] Cell viability was then evaluated by CV test. […]

C6 cells = assay: Cyclin D3 and p53 expression (cELISA, immunocytochemistry, Western blot), C6; assay type: cell-based, rat; details: 18.8 μM, 24 h (Western blot 4 h)
Source text: A slightly modified method for cell-based ELISA (cELISA) by Versteeg (Versteed et al., 2000) was used to measure the expression of galactocerebroside, glial fibrilar acidic protein (GFAP), myelin basic protein (MBP), cyclin D3, p53 and p-AKT. Briefly, at the end of cultivation period cells were fixed in 4% paraformaldehyde, endogenous peroxydase was quenched with 1% H2O2 in PBS containing 0.1% Triton X-100 (PBST), and unspecific binding of antibodies blocked with PBST solution containing 10% FCS. […] The absorbance at 450 nm was measured in an automated microplate reader 15 min after incubation with peroxydase substrate TMB and subsequently to addition of 0.1 M HCl. To facilitate comparison between treatments, the obtained absorbances were corrected for the cell number that was determined by crystal violet staining, as described in the original protocol.
The detection of expression of cyclin D3 and p53 expression was performed by the immunocytochemical procedure as previously described (Mijatovic et al, 2005). The cells were cultivated in glass chamber-slides (3×10^4 cells/well) and cyclin D3 and p53 expression were detected with specific antibodies against cyclin D3 (1:1000, Santa Cruz Biotechnology, Santa Cruz, Calif.) and p53 (1:500, Santa Cruz Biotechnology, Santa Cruz, Calif.). […]

Row | Structure (SMILES) | lethality (CD1 mice; 500 mg/kg, 24 h) [%] | lethality (CD1 mice; 1000 mg/kg, 14 days) [%] | lethality (CD1 mice; 14 days) [%] | time of death (mean±SD) (CD1 mice; 14 days) [h] | time of death (range) (CD1 mice; 14 days) [h] | effect on viability of non-transformed primary fibroblasts (mouse fibroblasts) | cyclin D3 expression (C6 cells) | p53 expression (C6 cells)
1 | CC(C)(C)NC(=O)[C@@H]1C[C@@H]2CCCC[C@@H]2CN1C[C@@H](O)[C@H](Cc1ccccc1)NC(=O)[C@H](CC(N)=O)NC(=O)c1ccc2ccccc2n1 [Saq, Saquinavir, reference compound] | 20 | 30 | 100 | 65 ± 58 | 18 to 144 | highly toxic |  | 
2 | CC(C)(C)NC(=O)[C@@H]1C[C@@H]2CCCC[C@@H]2CN1C[C@@H](O[N+](=O)[O-])[C@H](Cc1ccccc1)NC(=O)[C@H](CC(N)=O)NC(=O)c1ccc2ccccc2n1 [Saq-NO2, nitric ester of Saquinavir] |  |  |  |  |  | did not affect the viability | not considerably changed | much higher extent than Saq
